Results as given in ChEMBL document CHEMBL4033729, “Penicillospirone from a marine isolate of Penicillium sp. (SF-5292) with anti-inflammatory activity” (Bioorg Med Chem Lett, 2017).
Active and inactive are the calls of the source. No cut-off for these calls is given here.

Key:
[1] = species on record: Mus musculus; test: Inhibition of LPS-stimulated NFkappaB p65/p50 nuclear translocation in mouse BV2 cells assessed as increase in cytosolic p65/p50 protein level at 10 to 40 uM pre-incubated for 3 hrs before LPS-stimulation for 60 mins by Western blot method; type: cell-based
[2] = species on record: Mus musculus; test: Inhibition of LPS-stimulated NFkappaB signalling activation in mouse RAW264.7 cells assessed as reduction in IkappaB phosphorylation pre-incubated for 3 hrs before LPS-stimulation for 60 mins by Western blot method; type: cell-based
[3] = tested on: RAW264.7; test: Anti-inflammatory activity in mouse RAW264.7 cells assessed as reduction in LPS-induced IL-1beta mRNA expression pre-incubated for 3 hrs before LPS-stimulation for 12 hrs by RT-qPCR method; type: functional, cell-based
[4] = tested on: BV-2; test: Anti-inflammatory activity in mouse BV2 cells assessed as reduction in LPS-induced PGE2 production pre-incubated for 3 hrs before LPS-stimulation for 24 hrs; type: functional, cell-based
[5] = tested on: RAW264.7; test: Cytotoxicity in mouse RAW264.7 cells at 10 to 80 uM by MTT assay; type: cell-based; conditions: raw264.7, 80 µM
[6] = tested on: BV-2; test: Anti-inflammatory activity in mouse BV2 cells assessed as reduction in LPS-induced IL-1beta mRNA expression pre-incubated for 3 hrs before LPS-stimulation for 12 hrs by RT-qPCR method; type: functional, cell-based
[7] = tested on: BV-2; test: Inhibition of LPS-stimulated iNOS protein expression in mouse BV2 cells pre-incubated for 3 hrs before LPS-stimulation for 24 hrs by Western blot method; type: functional, cell-based
[8] = tested on: RAW264.7; test: Anti-inflammatory activity in mouse RAW264.7 cells assessed as reduction in LPS-induced PGE2 production pre-incubated for 3 hrs before LPS-stimulation for 24 hrs; type: functional, cell-based
[9] = tested on: BV-2; test: Anti-inflammatory activity in mouse BV2 cells assessed as reduction in LPS-induced IL6 mRNA expression pre-incubated for 3 hrs before LPS-stimulation for 12 hrs by RT-qPCR method; type: functional, cell-based
[10] = tested on: BV-2; test: Cytotoxicity in mouse BV2 cells at 10 to 80 uM by MTT assay; type: cell-based; conditions: bv-2, 80 µM
[11] = species on record: Mus musculus; test: Inhibition of LPS-stimulated NFkappaB signalling activation in mouse BV2 cells assessed as reduction in IkappaB phosphorylation pre-incubated for 3 hrs before LPS-stimulation for 60 mins by Western blot method; type: cell-based
[12] = tested on: RAW264.7; test: Anti-inflammatory activity in mouse RAW264.7 cells assessed as reduction in LPS-induced IL6 mRNA expression pre-incubated for 3 hrs before LPS-stimulation for 12 hrs by RT-qPCR method; type: functional, cell-based
[13] = tested on: BV-2; test: Anti-inflammatory activity in mouse BV2 cells assessed as reduction in LPS-induced IL12 mRNA expression pre-incubated for 3 hrs before LPS-stimulation for 12 hrs by RT-qPCR method; type: functional, cell-based
[14] = tested on: RAW264.7; test: Anti-inflammatory activity in mouse RAW264.7 cells assessed as reduction in LPS-induced nitric oxide production pre-incubated for 3 hrs before LPS-stimulation for 24 hrs by Griess reagent based ELISA; type: functional, cell-based
[15] = tested on: BV-2; test: Inhibition of LPS-stimulated COX2 protein expression in mouse BV2 cells pre-incubated for 3 hrs before LPS-stimulation for 24 hrs by Western blot method; type: functional, cell-based
[16] = tested on: RAW264.7; test: Inhibition of LPS-stimulated COX2 protein expression in mouse RAW264.7 cells pre-incubated for 3 hrs before LPS-stimulation for 24 hrs by Western blot method; type: functional, cell-based
[17] = species on record: Mus musculus; test: Inhibition of LPS-stimulated NFkappaB DNA binding activity in mouse BV2 cells assessed pre-incubated for 3 hrs before LPS-stimulation for 60 mins by ELISA; type: cell-based
[18] = species on record: Mus musculus; test: Inhibition of LPS-stimulated NFkappaB p65/p50 nuclear translocation in mouse RAW264.7 cells assessed as increase in cytosolic p65/p50 protein level at 10 to 40 uM pre-incubated for 3 hrs before LPS-stimulation for 60 mins by Western blot method; type: cell-based
[19] = tested on: BV-2; test: Anti-inflammatory activity in mouse BV2 cells assessed as reduction in LPS-induced TNFalpha mRNA expression pre-incubated for 3 hrs before LPS-stimulation for 12 hrs by RT-qPCR method; type: functional, cell-based
[20] = tested on: BV-2; test: Anti-inflammatory activity in mouse BV2 cells assessed as reduction in LPS-induced nitric oxide production pre-incubated for 3 hrs before LPS-stimulation for 24 hrs by Griess reagent based ELISA; type: functional, cell-based
[21] = tested on: RAW264.7; test: Anti-inflammatory activity in mouse RAW264.7 cells assessed as reduction in LPS-induced IL12 mRNA expression pre-incubated for 3 hrs before LPS-stimulation for 12 hrs by RT-qPCR method; type: functional, cell-based
[22] = tested on: RAW264.7; test: Anti-inflammatory activity in mouse RAW264.7 cells assessed as reduction in LPS-induced TNFalpha mRNA expression pre-incubated for 3 hrs before LPS-stimulation for 12 hrs by RT-qPCR method; type: functional, cell-based
[23] = tested on: RAW264.7; test: Inhibition of LPS-stimulated iNOS protein expression in mouse RAW264.7 cells pre-incubated for 3 hrs before LPS-stimulation for 24 hrs by Western blot method; type: functional, cell-based
[24] = species on record: Mus musculus; test: Inhibition of LPS-stimulated NFkappaB DNA binding activity in mouse RAW264.7 cells assessed pre-incubated for 3 hrs before LPS-stimulation for 60 mins by ELISA; type: cell-based

In the case of `C/C=C/[C@@H]1C=CC(=O)[C@H](O)[C@]12C(=O)O[C@H](C)[C@@H]2O`, the inhibition [1] is reported as “Active”, the inhibition [2] is reported as “Dose-dependent effect” and the inhibition [3] is reported as “Dose-dependent effect”. The IC50 [4] was 27.6 µM, the Activity [5] was “Non-Toxic” and the inhibition [6] was “Dose-dependent effect”. The inhibition [7] was “Dose-dependent effect”, the IC50 [8] was 22.8 µM and the inhibition [9] was “Dose-dependent effect”. For the same compound, the Activity [10] was “Non-Toxic”, the inhibition [11] was “Dose-dependent effect” and the inhibition [12] was “Dose-dependent effect”. The inhibition [13] was “Dose-dependent effect”, the IC50 [14] was 23.5 µM and the inhibition [14] was “Dose-dependent effect”. For the same compound, the inhibition [15] was “Dose-dependent effect”, the inhibition [16] was “Dose-dependent effect” and the inhibition [17] was “Dose-dependent effect”. For the same compound, the inhibition [18] was “Active”, the inhibition [19] was “Dose-dependent effect” and the IC50 [20] was 21.9 µM. For the same compound, the inhibition [20] was “Dose-dependent effect”, the inhibition [21] was “Dose-dependent effect” and the inhibition [22] was “Dose-dependent effect”. The inhibition [23] was “Dose-dependent effect” and the inhibition [24] was “Dose-dependent effect”.
